Assay: Stability of prazole starting materials in phosphate buffer media at pH 6.8 and 8.0
Method: Phosphate buffer media at pH 6.8 and 8.0 containing 0.5% w/w of sodium dodecyl sulfate were prepared, added into dissolution cups, with 1000 mL per cup. 0.5 mg of each of ilaprazole, omeprazole magnesium, esomeprazole magnesium, rabeprazole sodium, pantoprazole and lansoprazole was weighed and added into the dissolution cups, stirred at 150 rpm by a paddle method to ensure that the prazole starting materials sank into the media and dissolved therein. 5 mL of each of the samples was collected at 15 min, 30 min, 45 min and 60 min respectively, and added to 20 mL of sodium hydroxide stabilization medium, and then the volume was made up to 50 mL with the mobile phase.
The collected sample content in the media was determined according to the determination method of omeprazole magnesium, esomeprazole magnesium, rabeprazole sodium, pantoprazole sodium and lansoprazole in the Chinese Pharmacopoeia (Volume II, 2015 Edition) so as to determine the stability of the prazoles in the media at pH 6.8 and 8.0.

[1] = buffer, 0.25 h, 0.5 µg/mL, pH 6.8
[2] = buffer, 0.25 h, 0.5 µg/mL, pH 8
[3] = buffer, 0.5 h, 0.5 µg/mL, pH 6.8
[4] = buffer, 0.75 h, 0.5 µg/mL, pH 6.8
[5] = buffer, 0.75 h, 0.5 µg/mL, pH 8

remaining amount after the degradation (buffer, 0 h, 0.5 µg/mL, pH 6.8) | remaining amount after the degradation (buffer, 0 h, 0.5 µg/mL, pH 8) | remaining amount after the degradation [1] | remaining amount after the degradation [2] | remaining amount after the degradation [3] | remaining amount after the degradation (buffer, 0.5 h, 0.5 µg/mL, pH 8) | remaining amount after the degradation [4] | remaining amount after the degradation [5] | remaining amount after the degradation (buffer, 1 h, 0.5 µg/mL, pH 6.8) | remaining amount after the degradation (buffer, 1 h, 0.5 µg/mL, pH 8) | SMILES | stability in medium at pH 6.8 compared between prazoles (pH 6.8) | other results
– | – | – | – | – | – | – | – | – | – | COc1ccc2[n-]c([S+]([O-])Cc3ncc(C)c(OC)c3C)nc2c1.COc1ccc2[n-]c([S+]([O-])Cc3ncc(C)c(OC)c3C)nc2c1.[Mg+2] (stereo not drawn) [Esomeprazole magnesium, esomeprazole magnesium] | the best | remaining amount after the degradation (medium at pH 6.8, 15 min): 89.6%; remaining amount after the degradation (medium at pH 6.8, 30 min): 70.9%; remaining amount after the degradation (medium at pH 6.8, 45 min): 56.0%; remaining amount after the degradation (medium at pH 6.8, 60 min): 41.4%; remaining amount after the degradation (medium at pH 8.0, 15 min): 99.2%; remaining amount after the degradation (medium at pH 8.0, 30 min): 98.6%; remaining amount after the degradation (medium at pH 8.0, 45 min): 97.6%; remaining amount after the degradation (medium at pH 8.0, 60 min): 96.4%
100.0% | 100.0% | 59.7% | 94.3% | 42.7% | 91.5% | 29.4% | 88.6% | 20.7% | 84.6% | COc1ccnc(C[S+]([O-])c2nc3cc(-n4cccc4)ccc3[nH]2)c1C (stereo not drawn) [Ilaprazole, ilaprazole] | the worst | –
100.0% | 100.0% | 85.7% | 98.7% | 70.2% | 96.2% | 53.6% | 95.3% | 38.6% | 93.5% | Cc1c(OCC(F)(F)F)ccnc1C[S+]([O-])c1nc2ccccc2[nH]1 (stereo not drawn) [Lansoprazole, lansoprazole] | – | –
– | – | – | – | – | – | – | – | – | – | COc1ccc2[n-]c([S+]([O-])Cc3ncc(C)c(OC)c3C)nc2c1.COc1ccc2[n-]c([S+]([O-])Cc3ncc(C)c(OC)c3C)nc2c1.[Mg+2] (stereo not drawn) [Omeprazole magnesium, omeprazole magnesium] | – | remaining amount after the degradation (buffer, 0 h, pH 6.8): 100.0%; remaining amount after the degradation (buffer, 0 h, pH 8): 100.0%; remaining amount after the degradation (buffer, 0.25 h, pH 6.8): 81.2%; remaining amount after the degradation (buffer, 0.25 h, pH 8): 98.2%; remaining amount after the degradation (buffer, 0.5 h, pH 6.8): 66.7%; remaining amount after the degradation (buffer, 0.5 h, pH 8): 95.4%; remaining amount after the degradation (buffer, 0.75 h, pH 6.8): 47.4%; remaining amount after the degradation (buffer, 0.75 h, pH 8): 96.3%; remaining amount after the degradation (buffer, 1 h, pH 6.8): 29.2%; remaining amount after the degradation (buffer, 1 h, pH 8): 91.2%
100.0% | 100.0% | 83.6% | 98.6% | 65.9% | 95.9% | 50.2% | 92.2% | 35.4% | 91.4% | COc1ccnc(C[S+]([O-])c2nc3ccc(OC(F)F)cc3[nH]2)c1OC (stereo not drawn) [Pantoprazole sodium, pantoprazole sodium] | – | –
100.0% | 100.0% | 70.3% | 97.3% | 51.5% | 93.5% | 38.6% | 90.6% | 24.6% | 88.5% | COCCCOc1ccnc(C[S+]([O-])c2nc3ccccc3[nH]2)c1C (stereo not drawn) [Rabeprazole sodium, rabeprazole sodium] | – | –

— patent publication US20240033224A1, “ENTERIC-COATED PELLET, METHOD FOR PREPARING SAME AND FORMULATION COMPRISING SAME” (LIVZON PHARMACEUTICAL GROUP INC., priority 2020, published 2024)
